Experimental data reported in ChEMBL document CHEMBL1201862, “PubChem BioAssay data set” (2004).
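Growth conditions: 96-well plates. Treatment: test compound, 48 hours, 5 concentrations. Analysis: linear interpolation between bracketing concentrations; unreached endpoints set to highest concentration. GI50 = concentration required for 50% inhibition of growth.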 The source made the active and inactive calls. Rule as the data show it: active = GI50 up to about 1.1 µM and inactive = higher.

Key:
Test in all cases: NCI tumour cell line growth inhibition, 48 h
[1] = tested on: 786-0
[2] = tested on: A498
[3] = tested on: A549
[4] = tested on: ACHN
[5] = tested on: BT-549
[6] = tested on: CAKI-1
[7] = tested on: CCRF-CEM
[8] = tested on: COLO 205
[9] = tested on: DU-145
[10] = tested on: EKVX
[11] = tested on: HCC 2998
[12] = tested on: HCT-116
[13] = tested on: HCT-15
[14] = tested on: HL-60
[15] = tested on: HOP-62
[16] = tested on: HOP-92
[17] = tested on: HT-29
[18] = tested on: Hs-578T
[19] = tested on: IGROV-1
[20] = tested on: K562
[21] = tested on: KM12
[22] = tested on: LOX IMVI
[23] = tested on: M14
[24] = tested on: MCF7
[25] = tested on: MDA-MB-231
[26] = tested on: MDA-MB-435
[27] = tested on: MDA-N
[28] = tested on: MOLT-4
[29] = tested on: Malme-3M
[30] = tested on: NCI-H226
[31] = tested on: NCI-H23
[32] = tested on: NCI-H460
[33] = tested on: NCI-H522
[34] = tested on: NCI/ADR-RES
[35] = tested on: OVCAR-3
[36] = tested on: OVCAR-4
[37] = tested on: OVCAR-5
[38] = tested on: OVCAR-8
[39] = tested on: PC-3
[40] = tested on: RPMI-8226
[41] = tested on: RXF 393
[42] = tested on: SF-268
[43] = tested on: SF-295
[44] = tested on: SF-539
[45] = tested on: SK-MEL-28
[46] = tested on: SK-MEL-2
[47] = tested on: SK-MEL-5
[48] = tested on: SK-OV-3
[49] = tested on: SN12C
[50] = tested on: SNB-19
[51] = tested on: SNB-75
[52] = tested on: SR
[53] = tested on: SW-620
[54] = tested on: T47D
[55] = tested on: TK-10
[56] = tested on: U-251
[57] = tested on: UACC-257
[58] = tested on: UACC-62
[59] = tested on: UO-31

Measured: GI50

C1=N\CCNCC/N=C/c2ccccc2OCc2cccc(n2)COc2ccccc2/1
inactive: [1] 6.7 µM | [2] > 100 µM | [3] > 100 µM | [4] 31.2 µM | [5] 12 µM | [6] 42.8 µM | [7] 3.33 µM | [8] > 56.8 µM | [9] 26.3 µM | [10] 35.5 µM | [11] 19.5 µM | [12] 3.57 µM | [14] 2.56 µM | [15] 12.4 µM | [16] 26.1 µM | [17] 10.7 µM | [18] 9.51 µM | [19] 24.5 µM | [20] 4.59 µM | [21] 20.5 µM | [22] 5.31 µM | [23] 8.02 µM | [24] 4.13 µM | [25] 22.2 µM | [26] 3.86 µM | [27] 3.18 µM | [28] 6.43 µM | [29] 11.8 µM | [30] 26.3 µM | [31] 12.9 µM | [32] 33.1 µM | [33] 27.5 µM | [34] 6.21 µM | [35] 23.8 µM | [36] 13.7 µM | [37] 37.5 µM | [38] 9.44 µM | [39] 19.2 µM | [40] 3.77 µM | [41] 27.9 µM | [42] 12.9 µM | [43] 8.15 µM | [44] 2.72 µM | [45] 7.85 µM | [46] > 44.5 µM | [47] 12.6 µM | [48] 43.3 µM | [49] 13.2 µM | [50] > 22.4 µM | [51] 9.46 µM | [52] 4.06 µM | [53] 7.05 µM | [54] 17.2 µM | [55] 20.7 µM | [56] 6.32 µM | [57] 29.2 µM | [58] 6.15 µM | [59] 9.12 µM
4.69 µM: [13]

O=C1/C(=C/c2ccc(O)cc2)CCCC1CN1CCCCC1 (stereo unspecified)
active: [1] 1.02 µM | [14] 0.483 µM
1.32 µM: [13]
inactive: [2] 6.84 µM | [3] 17.2 µM | [4] 1.73 µM | [5] 2.55 µM | [6] 2.56 µM | [7] 2.57 µM | [8] 2.16 µM | [9] 7.24 µM | [10] 3.25 µM | [11] 4.76 µM | [12] 1.79 µM | [15] 15.7 µM | [16] 1.78 µM | [17] 2.62 µM | [18] 3.71 µM | [19] 1.97 µM | [20] 1.42 µM | [21] 1.64 µM | [22] 1.56 µM | [23] 2.94 µM | [24] 1.69 µM | [25] 2.27 µM | [26] 7.28 µM | [27] 3.47 µM | [28] 2.2 µM | [29] 1.88 µM | [30] 7.14 µM | [31] 5.12 µM | [32] 14.3 µM | [33] 1.25 µM | [34] 8.2 µM | [35] 4.41 µM | [36] 12.9 µM | [37] 16.3 µM | [38] 5.92 µM | [39] 5.38 µM | [40] 1.32 µM | [41] 13.7 µM | [42] 3.44 µM | [43] 16.1 µM | [44] 3.94 µM | [45] 5.43 µM | [46] 11.2 µM | [47] 6.01 µM | [48] 16.6 µM | [49] 2.29 µM | [50] 17.6 µM | [51] 8.63 µM | [52] 1.39 µM | [53] 1.88 µM | [54] 2.32 µM | [55] 2.55 µM | [56] 7.91 µM | [57] 2.52 µM | [58] 1.83 µM | [59] 2.51 µM

O=C1CC(C(O)(C(F)(F)F)C(F)(F)Cl)CCC1C(O)(C(F)(F)F)C(F)(F)Cl (stereo unspecified)
inactive: [1] > 10 µM | [2] 6.58 µM | [3] > 10 µM | [4] > 10 µM | [5] > 10 µM | [6] > 10 µM | [7] > 10 µM | [8] 4.6 µM | [9] > 10 µM | [10] > 10 µM | [11] > 10 µM | [12] 7.19 µM | [14] > 10 µM | [15] > 10 µM | [16] 1.26 µM | [17] 5.78 µM | [18] > 10 µM | [19] > 10 µM | [20] > 10 µM | [21] > 10 µM | [22] > 10 µM | [23] > 10 µM | [24] 8.71 µM | [25] > 10 µM | [26] > 10 µM | [27] > 10 µM | [28] > 10 µM | [29] > 10 µM | [30] > 10 µM | [31] 9.55 µM | [32] > 10 µM | [33] 8.77 µM | [34] > 10 µM | [35] > 10 µM | [36] > 10 µM | [37] > 10 µM | [38] > 10 µM | [39] 2.68 µM | [40] > 10 µM | [41] 3.49 µM | [42] > 10 µM | [43] 7.5 µM | [44] 7.18 µM | [45] > 10 µM | [46] 3.25 µM | [47] > 10 µM | [48] > 10 µM | [49] > 10 µM | [50] > 10 µM | [51] 8.71 µM | [52] > 10 µM | [53] > 10 µM | [54] > 10 µM | [55] > 10 µM | [56] > 10 µM | [57] 4.18 µM | [58] 7.55 µM
> 10 µM: [13]
